In brackets after ≈: the same amount, converted by molar mass. Like-named read-outs stand apart in the source and are kept apart here.
Key:
physchem = conditions: 25 °C, pH 7.4, aqueous buffer, kinetic from dmso stock
Method: In-vitro kinetic solubilities of the compounds in PBS pH 7.4 buffer at 25° C. were determined by diluting compounds from 100% dimethyl sulfoxide (DMSO) into PBS buffer and measuring absorbance at 490, 590 and 650 nm. Stock concentrations in 100% DMSO were provided at 1-6 mM in 100% DMSO. Kinetic solubilities were determined by diluting test compounds from 100% DMSO into PBS pH 7.4 buffer, as duplicate, 10 point 2-fold serial dilution starting at 100× dilution of stock DMS solution into PBS buffer in a clear, flat bottom polystyrene assay plates. Total assay volume was 200 microliters. Solutions were mixed by plate shaking, incubated for 30 m at 25° C., and absorbance was read at 490, 590 and 650 nm. […] in PBS buffer was used as a blank. For each test compound, average optical density (GD) at each concentration was determined by averaging the blank corrected sum of absorption at 490 nm, 590 nm and 650 nm, over duplicate measurements. Turbidity threshold optical density value was set as a sum of mean plus two standard deviations of the mean of absorbances at 490, 590 and 650 nm for 1% (v/v) DMSO in PBS pH 7.4 buffer. Highest soluble concentration (micromolar) corresponded to the highest concentration at which average optical density was below optical density value set for turbidity threshold (Table 4). Amiodarone and propranolol were used as low and high solubility controls respectively.

SKBR3 = experiment: In vitro cytotoxicity assay (CellTiter-Glo), SKBR3; assay type: cell-based, Human; conditions: read-out: Cytotoxicity IC50
Method: (§1) Human tumor cell lines, SK-BR-3, NCI-H292, HT-29, MCF-7, NCI-N87, and FaDu were obtained from ATCC. NCI-H292, HT-29, MCF-7, and NCI-N87 cells were cultured in RPMI-1640 media (Gibco, Life Technologies) supplemented with 10% v/v heat inactivated FBS (Corning), FaDu cells were maintained in DMEM media (Gibco, Life Technologies) supplemented with 10% v/v heat inactivated FBS (Corning). SK-BR-3 cells were maintained in McCoys 5A medium (Gibco, Life Technologies) supplemented with 10% […] heat inactivated FBS (Corning) at 37° C. in a humidified incubator containing 5% CO2.
(§2) Lyophilized compounds were dissolved in 100% dry DMSO, aliquots frozen and stored at −80° C. Concentration and purity of compound stock solutions in DMSO were determined by RP-HPLC Agilent 1100 platform with 1200 DAD and SofTA ELSD detectors, and the Agilent 6150 MS system (UV/VIS, ELSD purity and MS compound identity confirmation). Shimadzu 3.0 mm×30 mm XR ODS 2.2 μm column was run at 50° C., 1.5 mL/min. Solvent A: 0.1% Formic acid in water, Solvent B: 0.08% Formic acid in methanol-Gradient: 5%-100% B in 3.0 min, 100% solvent B for 0.3 min. Concentration of compounds in 100% DMSO determined by ELS ranged from 1-6 mM.
(§3) Cells were plated in 96-well white flat-bottomed plates (Corning) at 2.0×10^3 cells per well in 100 μL culture medium. After incubation for 24 hours, test compounds were added at a range of concentrations as ten point serial dilution as duplicates or triplicates. Following further incubation for 6 days 37° C., 5% CO2, cell viability was assessed with the use of a CellTiter-Glo Luminescent Cell Viability Assay (Promega). Luminescence was measured using the GloMax instrument (Promega). […] For a subset of payloads, each treatment was independently repeated two to eight times, and IC50 values were averaged. […] Standard deviation (stdev) is shown as (N/A) for treatment performed once.

HT29 = experiment: In vitro cytotoxicity assay (CellTiter-Glo), HT29; assay type: cell-based, Human; conditions: read-out: Cytotoxicity IC50
Method: as §1, §2, §3

NCI-H292 = experiment: In vitro cytotoxicity assay (CellTiter-Glo), NCI-H292; assay type: cell-based, Human; conditions: read-out: Cytotoxicity IC50
Method: as §1, §2, §3

MCF7 = experiment: In vitro cytotoxicity assay (CellTiter-Glo), MCF7; assay type: cell-based, Human; conditions: read-out: Cytotoxicity IC50
Method: as §1, §2, §3

NCI-N87 = experiment: In vitro cytotoxicity assay (CellTiter-Glo), NCI-N87; assay type: cell-based, Human; conditions: read-out: Cytotoxicity IC50
Method: as §1, §2, §3

FaDu = experiment: In vitro cytotoxicity assay (CellTiter-Glo), FaDu; assay type: cell-based, Human; conditions: read-out: Cytotoxicity IC50
Method: as §1, §2, §3

SKOV3 = experiment: In vitro cytotoxicity assay (CellTiter-Glo), SKOV3; assay type: cell-based; conditions: read-out: Cytotoxicity IC50
Method: (§4) Lyophilized compounds were dissolved in 100% dry DMSO, aliquots frozen and stored at −80° C. […] Shimadzu 3.0 mm×30 mm XR ODS 2.2 μm column was run at 50° C., 1.5 mL/min. Solvent A: 0.1% Formic acid in water, Solvent B: 0.08% Formic acid in methanol-Gradient: 5%-100% B in 3.0 min, 100% solvent B for 0.3 min.
as §3

BXPC3 = experiment: In vitro cytotoxicity assay (CellTiter-Glo), BXPC3; assay type: cell-based; conditions: read-out: Cytotoxicity IC50
Method: as §4, §3

SMILES | solubility at 30 min (physchem) [µM] | IC50 (SKBR3; Homo sapiens, SK-BR-3, 144 h) [nM] | IC50 (HT29; Homo sapiens, HT-29, 144 h) [nM] | IC50 (NCI-H292; Homo sapiens, NCI-H292, 144 h) [nM] | IC50 (MCF7; Homo sapiens, MCF7, 144 h) [nM] | IC50 (NCI-N87; Homo sapiens, NCI-N87, 144 h) [nM] | IC50 (FaDu; Homo sapiens, FaDu, 144 h) [nM] | IC50 (SKOV3; Homo sapiens, SK-OV-3, 144 h) [nM] | IC50 (BXPC3; Homo sapiens, BXPC-3, 144 h) [nM] | IC50 (SKBR3; SKBR3 cells, 6 days incubation, mean of IC50 values) [nM] | IC50 (HT29; HT29 cells, 6 days incubation, mean of IC50 values) [nM] | IC50 (NCI-H292; NCI-H292 cells, 6 days incubation, mean of IC50 values) [nM] | IC50 (MCF7; MCF7 cells, 6 days incubation, mean of IC50 values) [nM] | IC50 (NCI-N87; NCI-N87 cells, 6 days incubation, mean of IC50 values) [nM] | IC50 (FaDu; FaDu cells, 6 days incubation, mean of IC50 values) [nM] | IC50 (SKOV3; SKOV3 cells, 6 days incubation, mean of IC50 values) [nM] | IC50 (BXPC3; BXPC3 cells, 6 days incubation, mean of IC50 values) [nM]
CC[C@@]1(O)C(=O)OCc2c1cc1n(c2=O)Cc2c-1nc1cc(F)c(C)c3c1c2[C@@H](NC(=O)[C@H]1C[C@H]1CO)CC3 (single isomer, unassigned) [Compound 111-B] | 30 (≈ 16 µg/mL) | 2.1 | 6.3 | 4.5 | 3.8 | 5.2 | 1.1 | – | – | – | – | – | – | – | – | – | –
CC[C@@]1(O)C(=O)OCc2c1cc1n(c2=O)Cc2c-1nc1cc(F)c(C)c3c1c2[C@@H](NC(=O)C1CC(O)C1)CC3 (stereo partly drawn) [Compound 58] | – | 12.1 | 177 | 60.5 | 32 | 49.4 | 6.3 | – | – | – | – | – | – | – | – | – | –
CC[C@@]1(O)C(=O)OCc2c1cc1n(c2=O)Cc2c-1nc1cc(F)c(C)c3c1c2[C@@H](NC(=O)C12CC(O)(C1)C2)CC3 [Compound 79] | – | 5.9 | 31.7 | 14 | 9.8 | 15.5 | 2.3 | 25.3 | 5.5 | – | – | – | – | – | – | – | –
CC[C@@]1(O)C(=O)OCc2c1cc1n(c2=O)Cc2c-1nc1cc(F)c(C)c3c1c2[C@@H](NC(=O)C#CCO)CC3 [Compound 83] | – | 25.6 | 255 | 121 | 42.2 | 159 | 16.5 | – | – | – | – | – | – | – | – | – | –
CC[C@@]1(O)C(=O)OCc2c1cc1n(c2=S)Cc2c-1nc1cc(F)c(C)c3c1c2[C@@H](NC(=O)CO)CC3 [Compound 106] | – | 0.4 | 1.1 | 0.4 | 0.2 | 0.9 | – | – | – | – | – | – | – | – | – | – | –
CC[C@@]1(O)C(=O)OCc2c1cc1n(c2=S)Cc2c-1nc1cc(F)c(C)c3c1c2[C@@H](N)CC3 [Compound 107] | 15 (≈ 6.77 µg/mL) | 0.1 | 0.4 | 0.6 | 0.2 | 0.2 | 0.1 | – | – | – | – | – | – | – | – | – | –
CC[C@@]1(O)C(=O)OCc2c1cc1n(c2=O)Cc2c-1nc1cc(F)c(C)c3c1c2[C@@H](NC(=O)CCC(=O)NC(CO)(CO)CO)CC3 [Compound 122] | – | 657 | 3400 | 1020 | 205 | 2700 | 121 | 819 | 227 | – | – | – | – | – | – | – | –
CC[C@@]1(O)C(=O)OCc2c1cc1n(c2=O)Cc2c-1nc1cc(F)c(C)c3c1c2[C@@H](N(C)CCO)CC3 [Compound 140] | 10 (≈ 4.94 µg/mL) | 0.8 | 1.2 | 3 | 0.2 | 1.5 | 0.3 | – | – | – | – | – | – | – | – | – | –
CC[C@@]1(O)C(=O)OCc2c1cc1n(c2=O)Cc2c-1nc1cc(F)c(C)c3c1c2[C@@H](NCCOCCO)CC3 [Compound 147] | 21 (≈ 11 µg/mL) | 2.7 | 7.1 | 9.4 | 3.1 | 8.5 | 3 | – | – | – | – | – | – | – | – | – | –
CC[C@@]1(O)C(=O)OCc2c1cc1n(c2=O)Cc2c-1nc1cc(F)c(C)c3c1c2[C@@H](NC(=O)C1(O)COC1)CC3 [Compound 159] | 27 (≈ 14.5 µg/mL) | 5.8 | 64.2 | 21.6 | 9.8 | 22.4 | 2 | – | – | – | – | – | – | – | – | – | –
CC[C@@]1(O)C(=O)OCc2c1cc1n(c2=O)Cc2c-1nc1cc(F)c(C)c3c1c2[C@@H](N(C=O)CCO)CC3 [Compound 163] | 24 (≈ 12.2 µg/mL) | 9.8 | 65 | 22.3 | 10.9 | 29.4 | 7.8 | – | – | – | – | – | – | – | – | – | –
CC[C@@]1(O)C(=O)OCc2c1cc1n(c2=O)Cc2c-1nc1cc(F)c(C)c3c1c2[C@@H](NCCNCCN)CC3 [Compound 164] | 10 (≈ 5.22 µg/mL) | 10.8 | 32.7 | 30.3 | 5.2 | 22.8 | 8.8 | – | – | – | – | – | – | – | – | – | –
CC[C@@]1(O)C(=O)OCc2c1cc1n(c2=O)Cc2c-1nc1cc(F)c(C)c3c1c2[C@@H](NC(=O)c1cc(O)[nH]n1)CC3 [Compound 166] | 22 (≈ 12 µg/mL) | 118 | 663 | 322 | 162 | 410 | 93.8 | – | – | – | – | – | – | – | – | – | –
CC[C@@]1(O)C(=O)OCc2c1cc1n(c2=O)Cc2c-1nc1cc(F)c(C)c3c1c2[C@@H](NC(=O)c1coc(CO)n1)CC3 [Compound 167] | – | 3.5 | 43.5 | 23 | 8.9 | 34 | 3 | – | – | – | – | – | – | – | – | – | –
CC[C@@]1(O)C(=O)OCc2c1cc1n(c2=O)Cc2c-1nc1cc(F)c(C)c3c1c2[C@@H](NC(=O)c1cc(CO)[nH]n1)CC3 [Compound 168] | – | 32.7 | 627 | 77.9 | 19.4 | 103 | 9.9 | – | – | – | – | – | – | – | – | – | –
CC[C@@]1(O)C(=O)OCc2c1cc1n(c2=S)Cc2c-1nc1cc(F)c(C)c3c1c2[C@@H](NC(=S)[C@H]1C[C@@H]1CO)CC3 [Compound 175-B] | – | 0.5 | 1.6 | 1.5 | 0.6 | 1.5 | 0.3 | – | – | – | – | – | – | – | – | – | –
CC[C@@]1(O)C(=O)OCc2c1cc1n(c2=O)Cc2c-1nc1cc(F)c(C)c3c1c2[C@@H](NC(=S)CO)CC3 [Compound 176] | – | 0.7 | 4.3 | 4.5 | 7.8 | 2.1 | 0.9 | – | – | – | – | – | – | – | – | – | –
CC[C@@]1(O)C(=O)OCc2c1cc1n(c2=O)Cc2c-1nc1cc(F)c(C)c3c1c2[C@@H](NC(=O)CCC1OCCO1)CC3 [Compound 188] | 6 (≈ 3.38 µg/mL) | 3.4 | 13 | 6.6 | 4.9 | 9 | 1.5 | – | – | – | – | – | – | – | – | – | –
CC[C@@]1(O)C(=O)OCc2c1cc1n(c2=O)Cc2c-1nc1cc(F)c(C)c3c1c2[C@@H](NC(=O)CO)CC3 [DXD] | – | – | – | – | – | – | – | – | – | 1.3 | 6.9 | 3.8 | 2.7 | 4.7 | 0.9 | 8.6 | 2.3
CC(C)NCC(O)COc1cccc2ccccc12 (stereo not drawn) [Propranolol, propranolol, reference compound] | 100 (≈ 25.9 µg/mL) | – | – | – | – | – | – | – | – | – | – | – | – | – | – | – | –

— patent US20250101032A1, “EXATECAN DERIVATIVES AND ANTIBODY-DRUG CONJUGATES THEREOF” (priority 2021, published 2025)
